Data as given in patent publication US20250353891A1 (MEDIMMUNE LIMITED, priority 2022, published 2025).
Starred links: 1 amine or outer side, 2 acyl side, 3 side chain; linkers in the order of their positions; H or OH if unused. Non-standard residues stand in square brackets, D forms with d. Residues, ends and D or L forms follow the SMILES beside them. Groups on a side chain read outwards from the residue. *: point of attachment. C20 diacid = O=C(O)CCCCCCCCCCCCCCCCCCC(=O)*; C18 diacid = O=C(O)CCCCCCCCCCCCCCCCC(=O)*; γGlu = O=C(O)[C@H](CCC(=O)[*:2])N[*:1]; αMeF = C[C@](N)(Cc1ccccc1)C(=O)O; AEEA = NCCOCCOCC(=O)O; Aib = CC(C)(N)C(=O)O

Columns and labels:
[1] = biological target: human GLP-1 receptor (hGLP-1R) (Homo sapiens, UniProt P43220); assay: cAMP production (HTRF) in CHO cells expressing hGLP-1R; assay type: cell-based; design: expressed in transfected cells; details: for EC50: Table 6, peptides modified at position 17, cAMP in CHO hGLP-1R cells, geometric mean, read-out: hGLP-1R EC50; for % Relative Potency Ratio: % GLP-1R activity relative to GLP-1 / % GlucR activity relative to glucagon
Procedure: (§1) Cells were re-suspended in assay buffer at a batch-dependent optimized concentration (typically hGLP-1R cells at 1×10^5 cells/mL, hGCGR cells at 2×10^5 cells/mL).
(§2) Cells were added to the assay plate using a multidrop dispenser and incubated at room temperature for 30 minutes before measuring the cAMP level using a cAMP dynamic 2 homogeneous time resolved Fluorescence (HTRF) kit (Cisbio Bioassays #62AM4PEJ) following the two-step protocol as per manufacturer's recommendations. In brief, anti-cAMP cryptate (donor fluorophore) and cAMP-d2 (acceptor fluorophore) were made up separately by diluting each 1 in 20 in conjugate and lysis buffer provided in the kit. Anti-CAMP cryptate was added to all wells of the assay plate, followed by cAMP-d2 added to all wells except non-specific binding (NSB) wells (to which conjugate and lysis buffer was added).
(§3) Data was transformed to % Delta F as described in the manufacturer's guidelines and analyzed by 4-parameter logistic fit to determine EC50 values.

[2] = biological target: human glucagon receptor (hGCGR) (Homo sapiens, UniProt P47871); assay: cAMP production (HTRF) in CHO cells expressing hGCGR; assay type: cell-based; design: expressed in transfected cells; details: Table 6, peptides modified at position 17; cAMP in CHO hGCGR cells; geometric mean; read-out: hGluc-R EC50
Procedure: as §1, §2, §3

Chain of human GLP-1 receptor (hGLP-1R) (P43220 24-463): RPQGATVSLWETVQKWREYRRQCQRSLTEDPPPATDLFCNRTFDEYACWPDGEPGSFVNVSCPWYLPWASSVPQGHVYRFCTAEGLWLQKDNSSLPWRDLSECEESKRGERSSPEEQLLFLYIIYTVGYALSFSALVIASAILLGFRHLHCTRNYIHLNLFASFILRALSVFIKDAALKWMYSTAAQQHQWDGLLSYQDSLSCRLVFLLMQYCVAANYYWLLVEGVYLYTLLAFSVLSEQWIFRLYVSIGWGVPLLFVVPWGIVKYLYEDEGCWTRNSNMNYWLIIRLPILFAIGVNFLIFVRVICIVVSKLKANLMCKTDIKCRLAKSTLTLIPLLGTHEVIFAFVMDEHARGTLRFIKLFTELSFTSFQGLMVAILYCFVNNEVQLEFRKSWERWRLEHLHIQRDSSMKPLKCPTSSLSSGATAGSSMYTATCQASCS
Chain of human glucagon receptor (hGCGR) (P47871 26-477): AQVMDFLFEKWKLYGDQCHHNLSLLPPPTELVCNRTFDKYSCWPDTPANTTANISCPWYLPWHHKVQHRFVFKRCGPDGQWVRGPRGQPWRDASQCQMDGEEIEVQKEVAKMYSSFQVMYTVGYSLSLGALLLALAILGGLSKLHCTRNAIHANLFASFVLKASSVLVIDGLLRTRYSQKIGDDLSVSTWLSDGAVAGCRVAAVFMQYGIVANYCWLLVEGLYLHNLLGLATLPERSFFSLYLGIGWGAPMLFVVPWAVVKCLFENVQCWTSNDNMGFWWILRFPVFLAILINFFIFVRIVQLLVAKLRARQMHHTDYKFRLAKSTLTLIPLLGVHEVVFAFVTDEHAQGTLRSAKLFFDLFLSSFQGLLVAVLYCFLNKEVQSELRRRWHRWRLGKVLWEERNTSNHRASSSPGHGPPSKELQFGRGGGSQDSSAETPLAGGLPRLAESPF

| EC50 [1] | EC50 [2] | % Relative Potency Ratio ([1]; Table 6) | Compound | % Relative Potency Ratio [1] |
| --- | --- | --- | --- | --- |
| 3.2 nM | > 27.1 nM |  | CC[C@H](C)[C@H](NC(=O)C(C)(C)NC(=O)[C@H](CCC(N)=O)NC(=O)[C@@H](NC(=O)[C@](C)(Cc1ccccc1)NC(=O)[C@H](CC(=O)O)NC(=O)[C@H](CCC(N)=O)NC(=O)[C@H](C)NC(=O)[C@H](C)NC(=O)[C@H](CCCCNC(=O)COCCOCCNC(=O)COCCOCCNC(=O)CC[C@H](NC(=O)CCCCCCCCCCCCCCCCC(=O)O)C(=O)O)NC(=O)[C@H](CO)NC(=O)[C@H](CC(=O)O)NC(=O)[C@H](CC(C)C)NC(=O)C(C)(C)NC(=O)[C@H](CCCCN)NC(=O)[C@H](CO)NC(=O)[C@@H](NC(=O)[C@H](CC(=O)O)NC(=O)[C@H](CO)NC(=O)[C@@H](NC(=O)[C@](C)(Cc1ccccc1)NC(=O)[C@H](CO)NC(=O)CNC(=O)[C@H](CCC(N)=O)NC(=O)[C@H](CO)NC(=O)[C@@H](N)Cc1c[nH]cn1)[C@@H](C)O)C(C)C)C(C)C)C(=O)N[C@@H](C)C(=O)N[C@@H](CC(N)=O)C(N)=O [Peptide 1] (H-HSQGS[αMeF]TSDVSK[Aib]LDSK([AEEA-AEEA-γGlu-C18 diacid])AAQD[αMeF]VQ[Aib]IAN-NH2; N-terminus assumed) |  |
| 1.28 nM | 4.19 nM | 6.5 | CC[C@H](C)[C@H](NC(=O)[C@H](Cc1c[nH]c2ccccc12)NC(=O)[C@H](CCC(N)=O)NC(=O)[C@@H](NC(=O)[C@](C)(Cc1ccccc1)NC(=O)[C@H](CC(=O)O)NC(=O)[C@H](CCC(N)=O)NC(=O)[C@H](C)NC(=O)[C@H](C)NC(=O)[C@H](CCCCNC(=O)COCCOCCNC(=O)COCCOCCNC(=O)CC[C@H](NC(=O)CCCCCCCCCCCCCCCCCCC(=O)O)C(=O)O)NC(=O)[C@H](CO)NC(=O)[C@H](CC(=O)O)NC(=O)[C@H](CC(C)C)NC(=O)[C@](C)(Cc1ccccc1)NC(=O)[C@H](CCCCN)NC(=O)[C@H](CO)NC(=O)[C@@H](NC(=O)[C@H](CC(=O)O)NC(=O)[C@H](CO)NC(=O)[C@@H](NC(=O)[C@](C)(Cc1ccccc1)NC(=O)[C@H](CO)NC(=O)CNC(=O)[C@H](CCC(N)=O)NC(=O)[C@H](CO)NC(=O)[C@@H](N)Cc1c[nH]cn1)[C@@H](C)O)C(C)C)C(C)C)C(=O)N[C@@H](C)C(=O)N[C@@H](CC(N)=O)C(=O)N[C@H](C(N)=O)[C@@H](C)O [Peptide 2] (H-HSQGS[αMeF]TSDVSK[αMeF]LDSK([AEEA-AEEA-γGlu-C20 diacid])AAQD[αMeF]VQWIANT-NH2; N-terminus assumed) |  |
| 0.069 nM | 0.149 nM | 4.3 | CC[C@H](C)[C@H](NC(=O)[C@H](Cc1c[nH]c2ccccc12)NC(=O)[C@H](CCC(N)=O)NC(=O)[C@@H](NC(=O)[C@H](Cc1ccccc1)NC(=O)[C@H](CC(=O)O)NC(=O)[C@H](CCC(N)=O)NC(=O)[C@H](C)NC(=O)[C@H](C)NC(=O)[C@H](CCCCNC(=O)CC[C@H](NC(=O)CCCCCCCCCCCCCCCCC(=O)O)C(=O)O)NC(=O)[C@H](CO)NC(=O)[C@H](CC(=O)O)NC(=O)[C@H](CC(C)C)NC(=O)[C@](C)(Cc1ccccc1)NC(=O)[C@H](CCCCN)NC(=O)[C@H](CO)NC(=O)[C@@H](NC(=O)[C@H](CC(=O)O)NC(=O)[C@H](CO)NC(=O)[C@@H](NC(=O)[C@](C)(Cc1ccccc1)NC(=O)[C@H](CO)NC(=O)CNC(=O)[C@H](CCC(N)=O)NC(=O)[C@H](CO)NC(=O)[C@@H](N)Cc1c[nH]cn1)[C@@H](C)O)C(C)C)C(C)C)C(=O)N[C@@H](C)C(=O)N[C@@H](CC(N)=O)C(=O)N[C@H](C(N)=O)[C@@H](C)O [Peptide 3] (H-HSQGS[αMeF]TSDVSK[αMeF]LDSK([γGlu-C18 diacid])AAQDFVQWIANT-NH2; N-terminus assumed) |  |
| 0.24 nM | 1.17 nM | 9.6 | CC[C@H](C)[C@H](NC(=O)[C@H](Cc1c[nH]c2ccccc12)NC(=O)[C@H](CCC(N)=O)NC(=O)[C@@H](NC(=O)[C@H](Cc1ccccc1)NC(=O)[C@H](CC(=O)O)NC(=O)[C@H](CCC(N)=O)NC(=O)[C@H](C)NC(=O)[C@H](C)NC(=O)[C@H](CCCCNC(=O)COCCOCCNC(=O)COCCOCCNC(=O)CC[C@H](NC(=O)CCCCCCCCCCCCCCCCC(=O)O)C(=O)O)NC(=O)[C@H](CO)NC(=O)[C@H](CC(=O)O)NC(=O)[C@H](CC(C)C)NC(=O)[C@](C)(Cc1ccccc1)NC(=O)[C@H](CCCCN)NC(=O)[C@H](CO)NC(=O)[C@@H](NC(=O)[C@H](CC(=O)O)NC(=O)[C@H](CO)NC(=O)[C@@H](NC(=O)[C@](C)(Cc1ccccc1)NC(=O)[C@H](CO)NC(=O)CNC(=O)[C@H](CCC(N)=O)NC(=O)[C@H](CO)NC(=O)[C@@H](N)Cc1c[nH]cn1)[C@@H](C)O)C(C)C)C(C)C)C(=O)N[C@@H](C)C(=O)N[C@@H](CC(N)=O)C(=O)N[C@H](C(N)=O)[C@@H](C)O [Peptide 4] (H-HSQGS[αMeF]TSDVSK[αMeF]LDSK([AEEA-AEEA-γGlu-C18 diacid])AAQDFVQWIANT-NH2) |  |
| 0.283 nM | 7.14 nM | 49.9 | CC[C@H](C)[C@H](NC(=O)C(C)(C)NC(=O)[C@H](CCC(N)=O)NC(=O)[C@@H](NC(=O)[C@](C)(Cc1ccccc1)NC(=O)[C@H](CC(=O)O)NC(=O)[C@H](CCC(N)=O)NC(=O)[C@H](C)NC(=O)[C@H](C)NC(=O)[C@H](CCCCNC(=O)COCCOCCNC(=O)COCCOCCNC(=O)CC[C@H](NC(=O)CC[C@H](NC(=O)CCCCCCCCCCCCCCCCC(=O)O)C(=O)O)C(=O)O)NC(=O)[C@H](CO)NC(=O)[C@H](CC(=O)O)NC(=O)[C@H](CC(C)C)NC(=O)[C@](C)(Cc1ccccc1)NC(=O)[C@H](CCCCN)NC(=O)[C@H](CO)NC(=O)[C@@H](NC(=O)[C@H](CC(=O)O)NC(=O)[C@H](CO)NC(=O)[C@@H](NC(=O)[C@](C)(Cc1ccccc1)NC(=O)[C@H](CO)NC(=O)CNC(=O)[C@H](CCC(N)=O)NC(=O)C(C)(C)NC(=O)[C@@H](N)Cc1c[nH]cn1)[C@@H](C)O)C(C)C)C(C)C)C(=O)N[C@@H](C)C(=O)N[C@@H](CC(N)=O)C(N)=O [Peptide 5] (H-H[Aib]QGS[αMeF]TSDVSK[αMeF]LDSK([AEEA-AEEA-γGlu-γGlu-C18 diacid])AAQD[αMeF]VQ[Aib]IAN-NH2; N-terminus assumed) |  |
| 0.274 nM |  |  | CC(C)C[C@H](NC(=O)[C@H](Cc1c[nH]c2ccccc12)NC(=O)[C@H](CCC(N)=O)NC(=O)[C@@H](NC(=O)[C@H](Cc1ccccc1)NC(=O)[C@H](CC(=O)O)NC(=O)[C@H](CCC(N)=O)NC(=O)[C@H](C)NC(=O)[C@H](CCCNC(=N)N)NC(=O)[C@H](CCCCNC(=O)COCCOCCNC(=O)COCCOCCNC(=O)CC[C@H](NC(=O)CC[C@H](NC(=O)CCCCCCCCCCCCCCCCC(=O)O)C(=O)O)C(=O)O)NC(=O)[C@H](CO)NC(=O)[C@H](CC(=O)O)NC(=O)[C@H](CC(C)C)NC(=O)[C@](C)(Cc1ccccc1)NC(=O)[C@H](CCCCN)NC(=O)[C@H](CO)NC(=O)[C@@H](NC(=O)[C@H](CC(=O)O)NC(=O)[C@H](CO)NC(=O)[C@@H](NC(=O)[C@H](Cc1ccccc1)NC(=O)[C@@H](NC(=O)CNC(=O)[C@H](CCC(N)=O)NC(=O)C(C)(C)NC(=O)[C@@H](N)Cc1c[nH]cn1)[C@@H](C)O)[C@@H](C)O)C(C)C)C(C)C)C(=O)N[C@@H](CC(C)C)C(=O)NC(C)(C)C(=O)N[C@H](C(N)=O)[C@@H](C)O [Peptide 463] (H-H[Aib]QGTFTSDVSK[αMeF]LDSK([AEEA-AEEA-γGlu-γGlu-C18 diacid])RAQDFVQWLL[Aib]T-NH2; N-terminus assumed) |  |
|  |  |  | H(Aib)HGS(αMePhe)TSDK(O20C-O2OC-γE-γE-C20diacid)10SK(αMePhe)LDSRAAQD(αMePhe)VQ(Aib)IANT-amide [Peptide 391] | 49.1 |
